Consider seven molecules from patent US12269831B2, “Modulators of cystic fibrosis transmembrane conductance regulator” (Vertex Pharmaceuticals Incorporated, priority 2020, dated 2025).

Read-outs that look alike come from different tables or passages of the source.

The conditions of the series: rcm bond, 14-membered ring.

With `CC(C)(C)OC(=O)N(C(=O)OC(C)(C)C)c1cc(C(F)(F)F)c2nc1-c1nnc(o1)[C@@](OCc1ccccc1)(C(F)(F)F)CCC=CC[C@@H](COCc1ccccc1)O2` (mixture of isomers), the ring closure, isolated yield (from C=CCC[C@@](OCc1ccccc1)(c1nnc(-c2nc(O[C@@H](CC=C)COCc3ccccc3)c(C(F)(F)F)cc2N(C(=O)OC(C)(C)C)C(=O)OC(C)(C)C)o1)C(F)(F)F, Zhan-1B, DCE, 2.78 mM, 60.0 °C, 5.5 h) is 45%. As to `CC(C)(C)OC(=O)N(C(=O)OC(C)(C)C)c1cc(C(F)(F)F)c2nc1-c1nnc(o1)[C@@](OCc1ccccc1)(C(F)(F)F)CCC=CC[C@H](COCc1ccccc1)O2` (mixture of isomers), the ring closure, isolated yield (from C=CCC[C@@](OCc1ccccc1)(c1nnc(-c2nc(O[C@H](CC=C)COCc3ccccc3)c(C(F)(F)F)cc2N(C(=O)OC(C)(C)C)C(=O)OC(C)(C)C)o1)C(F)(F)F, Zhan-1B, DCE, 3.72 mM, 60.0 °C, 2.5 h) turned out to be 46%.

In the case of `CC(C)(C)OC(=O)Nc1cc(C(F)(F)F)c2nc1-c1nnc(o1)C(OCc1ccccc1)(C(F)(F)F)CC=CCc1ccccc1O2` (mixture of isomers), the ring closure, isolated yield (from C=CCc1ccccc1Oc1nc(-c2nnc(C(CC=C)(OCc3ccccc3)C(F)(F)F)o2)c(NC(=O)OC(C)(C)C)cc1C(F)(F)F, Grubbs II, DCE, 5.12 mM, 70.0 °C, 21.0 h) was found to be 62%.

Regarding `C[C@@H]1CC=CCC[C@](OCc2ccccc2)(C(F)(F)F)C2=NN=C(O2)c2nc(c(C(F)(F)F)cc2Cl)O1` (mixture of isomers), for the setting “from C=CCC[C@@](OCc1ccccc1)(c1nnc(-c2nc(O[C@H](C)CC=C)c(C(F)(F)F)cc2Br)o1)C(F)(F)F, Zhan-1B, DCE, 2.2 mM, 60.0 °C, 2.0 h”, the ring closure, isolated yield was 47%. `C[C@@H]1CC=CCC[C@](OCc2ccccc2)(C(F)(F)F)C2=NN=C(O2)c2nc(c(C(F)F)cc2NC(=O)OC(C)(C)C)O1` (mixture of isomers) came in with a ring closure, isolated yield (from C=CCC[C@@](OCc1ccccc1)(c1nnc(-c2nc(O[C@H](C)CC=C)c(C(F)F)cc2NC(=O)OC(C)(C)C)o1)C(F)(F)F, Zhan-1B, DCE, 3.0 mM, 60.0 °C, 2.0 h) of 26%. For the setting “from C=CCc1cn(Cc2ccccc2)nc1-c1nnc(-c2nc(O[C@H](C)CC=C)c(C(F)(F)F)cc2NC(=O)OC(C)(C)C)o1, Zhan-1B, DCE, 2.9 mM, 70.0 °C, 2.0 h”, `C[C@@H]1CC=CCc2cn(Cc3ccccc3)nc2C2=NN=C(O2)c2nc(c(C(F)(F)F)cc2NC(=O)OC(C)(C)C)O1` (mixture of isomers) showed a ring closure, isolated yield of 37%. `C[C@H]1CC=CCC[C@](OCc2ccccc2)(C(F)(F)F)C2=NN=C(O2)c2nc(c(C(F)(F)F)cc2NC(=O)OC(C)(C)C)O1` (mixture of isomers): the ring closure, isolated yield (from C=CCC[C@@](OCc1ccccc1)(c1nnc(-c2nc(O[C@@H](C)CC=C)c(C(F)(F)F)cc2NC(=O)OC(C)(C)C)o1)C(F)(F)F, Hoveyda-Grubbs II, toluene, 5.08 mM, 100.0 °C, 1.0 h) amounted to 22%.
